Laboratory results: patent publication US6281342A, “Pradimicin compounds” (Bristol-Myers Squibb Company, priority 1994, dated 2001)
Values after ≈ are worked out from the molar mass of the structure shown. Where two headings read alike, the source gives them in different places.

How the values were obtained:
[1] = tested on: Candida tropicalis IFO 10241; test: MIC, two-fold agar dilution, C. tropicalis IFO 10241; assay type: cell-based; details: IFO10241, YMA pH 7.0, 28° C., 40 hours
Procedure: (§1) Minimum inhibitory concentrations (MICs) of nine 4'-N-substituted pradimicin derivatives were determined by two-fold agar dilution method on phosphate-buffered yeast morphology agar (YMA, pH 7.0, Difco Laboratories). A 5-μl of fungal cell suspension containing 2×10^6 cells/ml (2×10^7 cells/ml for Trichophyton mentagrophytes) were spotted on the surface of the agar plates containing test compound. MICs were recorded after 40-hour incubation at 28° C. except for T. mentagrophytes, which required 60-hour incubation to produce visually evaluable growth on the drug-free control plates and were defined as the lowest antibiotic concentrations showing no growth or less than five discrete colonies per spot.
(§2) Medium: yeast morphology agar + 1/15 M phosphate buffer (pH 7.0)
(§3) Incubation conditions: 28° C., 40 hours (C. albicans ATCC 38247 & T.
(§4) Medium: Yeast morphology agar + 1/15 phosphate buffer (pH 7.0).

[2] = tested on: Cryptococcus neoformans D49; test: MIC, two-fold agar dilution, C. neoformans D49; assay type: cell-based; details: YMA pH 7.0, 28° C., 40 hours
Procedure: as §1, §2, §3, §4

[3] = tested on: Candida tropicalis 85-8; test: MIC, two-fold agar dilution, C. tropicalis 85-8; assay type: cell-based; details: 858, YMA pH 7.0, 28° C., 40 hours
Procedure: as §1, §2, §3, §4

[4] = tested on: Trichophyton mentagrophytes #4329; test: MIC, two-fold agar dilution, T. mentagrophytes #4329; assay type: cell-based
Procedure: as §1, §2, §3
(§5) mentagrophytes #4329: 28° C., 60 hours).
as §4

[5] = tested on: Aspergillus fumigatus IAM 2034; test: MIC, two-fold agar dilution, A. fumigatus IAM 2034; assay type: cell-based; details: IAM2034
Procedure: as §1, §2, §3, §4

[6] = tested on: Cryptococcus neoformans IAM 4514; test: MIC, two-fold agar dilution, C. neoformans IAM 4514; assay type: cell-based; details: IAM4514
Procedure: as §1, §2, §3, §4

[7] = tested on: Candida albicans IAM 4888; test: MIC, two-fold agar dilution, C. albicans IAM 4888; assay type: cell-based; details: IAM4888, YMA pH 7.0, 28° C., 40 hours
Procedure: as §1, §2, §3, §4

[8] = tested on: Candida albicans ATCC 32354; test: MIC, two-fold agar dilution, C. albicans ATCC 32354; assay type: cell-based; details: ATCC32354, YMA pH 7.0, 28° C., 40 hours
Procedure: as §1, §2, §3, §4

[9] = tested on: Saccharomyces cerevisiae ATCC 9763; test: MIC, two-fold agar dilution, S. cerevisiae ATCC 9763; assay type: cell-based; details: ATCC9763, YMA pH 7.0, 28° C., 40 hours
Procedure: as §1, §2, §3, §4

[10] = tested on: Candida albicans A9540; test: MIC, two-fold agar dilution, C. albicans A9540; assay type: cell-based
Procedure: as §1, §2, §3, §4

[11] = tested on: Candida albicans 83-2-14; test: MIC, two-fold agar dilution, C. albicans 83-2-14; assay type: cell-based; details: 83214, YMA pH 7.0, 28° C., 40 hours
Procedure: as §1, §2, §3, §4

[12] = tested on: Candida albicans ATCC 38247; test: MIC, two-fold agar dilution, C. albicans ATCC 38247; assay type: cell-based; details: ATCC38247, YMA pH 7.0, 28° C., 60 hours (table footnote)
Procedure: as §1, §2, §3, §5, §4

[13] = tested on: Candida albicans A9540; test: animal or person; assay type: in vivo, male ICR mice infected with Candida albicans A9540
Procedure: The in vivo therapeutic efficacies of seven 4'-N-substituted pradimicin derivatives, KHM-1, KHM-2, KHM-3, KHM-4, KHM-5, KHM-6 and KHM-7 were evaluated in the mouse infected with Candida albicans A9540 and Aspergillus fumigatusIAM 2034. Groups of five specific-pathogen-free male ICR mice weighing 20-25 g at each dose level were intravenously infected with approximately 10 times the 50% lethal dose of C. albicans A9540 (1×10^6 cells/mouse) or A. fumigatus IAM 2034 (1×10^7 cells/mouse). Immediately after the fungal infection, test compounds dissolved with 10% DMSO in distilled water were intravenously given to the mouse at the dosed volume of 0.1 ml/10 g of body weight. […] Untreated control animals died 7 to 13 days post-infection.

[14] = Table 3, Trichophyton mentagrophytes #4329, YMA, read-out: MIC TM-4
[15] = Trichophyton mentagrophytes #4329, YMA pH 7.0, 28° C., 60 hours, read-out: MIC
[16] = Aspergillus fumigatus IAM 2034, YMA pH 7.0, 28° C., 40 hours, read-out: MIC
[17] = Table 3, Aspergillus fumigatus IAM 2034, YMA, read-out: MIC Af-3
[18] = Cryptococcus neoformans IAM 4514, YMA pH 7.0, 28° C., 40 hours, read-out: MIC
[19] = Table 3, Cryptococcus neoformans IAM 4514, YMA, read-out: MIC Cn-2
[20] = Candida albicans A9540, YMA pH 7.0, 28° C., 40 hours, read-out: MIC
[21] = Table 3, Candida albicans A9540, YMA, read-out: MIC Ca-4

MIC [1] | MIC [2] | MIC [3] | MIC [4, 14] | MIC [4, 15] | MIC [5, 16] | MIC [5, 17] | MIC [6, 18] | MIC [6, 19] | MIC [7] | MIC [8] | MIC [9] | MIC [10, 20] | MIC [10, 21] | MIC [11] | SMILES | further results
> 100 µg/mL | 6.3 µg/mL (≈ 7.25 µM) | > 100 µg/mL | 3.1 µg/mL (≈ 3.57 µM) | 3.1 µg/mL (≈ 3.57 µM) | 3.1 µg/mL (≈ 3.57 µM) | 3.1 µg/mL (≈ 3.57 µM) | 6.3 µg/mL (≈ 7.25 µM) | 6.3 µg/mL (≈ 7.25 µM) | 12.5 µg/mL (≈ 14.4 µM) | 12.5 µg/mL (≈ 14.4 µM) | 25 µg/mL (≈ 28.8 µM) | 12.5 µg/mL (≈ 14.4 µM) | 12.5 µg/mL (≈ 14.4 µM) | > 100 µg/mL | COc1cc(O)c2c(c1)C(=O)c1c(cc3c(c1O)-c1c(cc(C)c(C(=O)N[C@H](C)C(=O)O)c1O)[C@H](O[C@@H]1O[C@H](C)[C@H](NC(=N)N)[C@H](O[C@@H]4OC[C@@H](O)[C@H](O)[C@H]4O)[C@H]1O)[C@H]3O)C2=O [KHM-8, 4'-Guanidinopradimicin C] | 
> 100 µg/mL | 12.5 µg/mL (≈ 14.6 µM) | 50 µg/mL (≈ 58.6 µM) | 3.1 µg/mL (≈ 3.63 µM) | 3.1 µg/mL (≈ 3.63 µM) | 1.6 µg/mL (≈ 1.87 µM) | 1.6 µg/mL (≈ 1.87 µM) | 3.1 µg/mL (≈ 3.63 µM) | 3.1 µg/mL (≈ 3.63 µM) | 6.3 µg/mL (≈ 7.38 µM) | 6.3 µg/mL (≈ 7.38 µM) | 1.6 µg/mL (≈ 1.87 µM) | 12.5 µg/mL (≈ 14.6 µM) | 12.5 µg/mL (≈ 14.6 µM) | 12.5 µg/mL (≈ 14.6 µM) | COc1cc(O)c2c(c1)C(=O)c1c(cc3c(c1O)-c1c(cc(C)c(C(=O)N[C@H](C)C(=O)O)c1O)[C@H](O[C@@H]1O[C@H](C)[C@H](NC=N)[C@H](O[C@@H]4OC[C@@H](O)[C@H](O)[C@H]4O)[C@H]1O)[C@H]3O)C2=O [KHM-9, 4'-Amidinopradimicin C] | 

SMILES | MIC [1] | MIC [2] | MIC [3] | MIC [4, 14] | MIC [4, 15] | MIC [5, 16] | MIC [5, 17] | MIC [6, 18] | MIC [6, 19] | MIC [7] | MIC [8] | MIC [9] | MIC [10, 20] | MIC [10, 21] | MIC [11] | further results
COc1cc(O)c2c(c1)C(=O)c1c(cc3c(c1O)-c1c(cc(C)c(C(=O)N[C@H](C)C(=O)O)c1O)[C@H](O[C@@H]1O[C@H](C)[C@H](N)[C@H](O[C@@H]4OC[C@@H](O)[C@H](O)[C@H]4O)[C@H]1O)[C@H]3O)C2=O [Pradimicin C] | 100 µg/mL (≈ 121 µM) | 0.8 µg/mL (≈ 0.968 µM) | 100 µg/mL (≈ 121 µM) | 3.1 µg/mL (≈ 3.75 µM) | 3.1 µg/mL (≈ 3.75 µM) | 3.1 µg/mL (≈ 3.75 µM) | 3.1 µg/mL (≈ 3.75 µM) | 0.8 µg/mL (≈ 0.968 µM) | 0.8 µg/mL (≈ 0.968 µM) |  | 6.3 µg/mL (≈ 7.62 µM) | 6.3 µg/mL (≈ 7.62 µM) | 25 µg/mL (≈ 30.2 µM) | 25 µg/mL (≈ 30.2 µM) | 50 µg/mL (≈ 60.5 µM) | MIC [12]: 3.1 µg/mL (≈ 3.75 µM); ED50 ([13]; 480 h, Table 3, Candida albicans A9540, iv, read-out: PD50 (mice) Ca-4): 14 mg/kg; responders at 6.3 mg/kg ([13]; Candida albicans, A9540, 480 h, C. albicans, mice, 6.3 mg/kg iv, 20th day post-infection, read-out: S/T (No. of survivors/tested) (converted)): 40%; responders at 12.5 mg/kg ([13]; Candida albicans, A9540, 480 h, C. albicans, mice, 12.5 mg/kg iv, 20th day post-infection, read-out: S/T (No. of survivors/tested) (converted)): 40%; responders at 25 mg/kg ([13]; Candida albicans, A9540, 480 h, C. albicans, mice, 25 mg/kg iv, 20th day post-infection, read-out: S/T (No. of survivors/tested) (converted)): 100%; responders at 50 mg/kg ([13]; Candida albicans, A9540, 480 h, C. albicans, mice, 50 mg/kg iv, 20th day post-infection, read-out: S/T (No. of survivors/tested) (converted)): 0%; ED50 ([13]; Candida albicans, A9540, 480 h, Table 2, C. albicans, mice, iv, 95% confidence limits in parentheses, read-out: PD50 (50% protection dose)): 13 mg/kg
